Measurements taken from patent US20200390754A1, “METHODS OF ADMINISTERING TOLPERISONE” (Neurana Pharmaceuticals, Inc., priority 2017, published 2020).

Tests used:
[1] = system: male and female healthy volunteers; assay: Safety: treatment emergent adverse events; assay type: in vivo, human; details: for Treatment Emergent Adverse Events: Cardiac / Treatment Emergent Adverse Events: Gastrointestinal Disorders / Treatment Emergent Adverse Events: General: Sluggishness / Treatment Emergent Adverse Events: Nervous System Disorders, Attention / Treatment Emergent Adverse Events: Nervous System Disorders, Dizziness / Treatment Emergent Adverse Events: Nervous System Disorders, Headache / Treatment Emergent Adverse Events: Nervous System Disorders, Lethargy / Treatment Emergent Adverse Events: Nervous System Disorders, Somnolence / Treatment Emergent Adverse Events: Psychiatric (Insomnia) / Treatment Emergent Adverse Events: Respiratory / Treatment Emergent Adverse Events: Skin: Tolperisone 450 mg, Cyclobenzaprine 30 mg; for number of Treatment Emergent Adverse Events (TEAEs) reported: n per treatment, 3 days of each treatment
Protocol: (§1) Subjects were dosed on the morning of Day 1.
Safety analysis was based on the safety population. Safety measures were summarized using descriptive statistics and listed for each subject. MedDRA thesaurus was used to map adverse events verbatim to preferred terms and body systems. WHOdrug thesaurus (Sep. 1, 2016) was used to map prior medication and concomitant medication verbatim to preferred terms and ATC Class.
The Principal Investigator was responsible for the monitoring of subjects' safety and reporting of all adverse events (AEs) and serious adverse events (SAEs). The study personnel reviewed subject-volunteered information related to subjective complaints, and reviewed all laboratory findings and queried the subject specifically for visits requiring hospitalization, procedures, laboratory follow-up, or unscheduled visits to see their physician. Each trial subject was questioned about AEs during treatment with study drug. All AEs were documented in the subject's source documents as well as on the appropriate case report form (CRF). The Investigator assessed and recorded any AE in detail on the AE CRF pages including a description of the event, the date of onset, severity, time course, duration and outcome, relationship of the AE to study drug, and an alternate etiology for events not considered “probably” related to study drug and any actions taken.

[2] = system: male and female healthy volunteers; assay: Country Vigilance-Divided Attention (CVDA) driving scenario on the CRCDS-MiniSim driving simulator; details: for Lane Exceedance (extent of driving outside of lanes) / Total Collisions: Tolperisone 450 mg, Cyclobenzaprine 30 mg, TID; for SDLP in driving simulation compared to placebo (words, FIG. 1): primary endpoint; for Reaction time on the divided attention test: Day 1, compared to placebo (placebo or cyclobenzaprine)
Protocol: Methodology: This was a randomized, placebo-controlled, multiple-dose 3-way cross-over study of the safety and cognitive effects of multiple doses of 150 mg tolperisone film-coated tablets (prepared according to methods described and referred to herein) administered three times daily (TID) in 31 male and female healthy volunteers. […] Subjects received 3 days of each treatment over three treatment periods. Subject participation was approximately 3 weeks as outpatients with 3 days each week as overnight clinic participants. Subjects were screened within 28 days prior to Treatment Period 1 (Visit 2) for eligibility for participation in the study. Subjects who met all inclusion/exclusion criteria were admitted to the clinic on Day 1 to be evaluated for continued eligibility. Subjects performed a practice trial with the driving simulator and the cognitive function test. Subjects were dosed on the morning of Day 1. Approximately one hour after the […] dose on Day 1, subjects were administered the cognitive test, followed by the driving simulator examination. On the morning of Day 2, prior to dosing, subjects were re-administered the cognitive test and driving examination to assess residual next day effects. Subjects repeated cognitive testing and the driving examination on the morning of Day 3, after administration of the AM study medication, to evaluate the cumulative effects of 3 days of dosing. Subjects were discharged on Day 3 with instructions to return to the clinic on […] to repeat the above procedure with the second and third treatments. A follow-up phone call was conducted 1 week (±3 days) following discharge from the clinic on Day 17 to assess for continued safety. The total duration of study participation was approximately 4 weeks (range 4-8 weeks), including Screening and Follow-up.
The pharmacodynamic measures included simulated driving performance as measured by SDLP using the Cognitive Research Corporation Driving Simulator-MiniSim (CRCDS-MiniSim), the Karolinska Sleepiness Scale, the CogScreen Symbol Digit Coding (SDC) test, a self-perceived safety to drive question, the Visual Analog Scale (VAS) to assess subject's motivation and self-appraisal of their driving performance, and an assessment of the relationship between single-dose plasma drug levels and driving performance. Blood samples for the determination of plasma tolperisone concentrations were drawn prior to each AM dosing on Days 1-3, 8-10, 15-17 and post-driving test (15-30 minutes after the drive) on Days 1, 8, and 15. Blood samples collected post-driving test on Days 3, 10, and 17 were drawn between 1.5 and 2 hours after the start of the drive (approximately 10:30 AM to 11:00 AM). Safety was assessed by the monitoring and recording of adverse events, vital sign measurements, clinical laboratory abnormalities, electrocardiograms (ECGs), pregnancy tests, and physical examinations.
The primary endpoint, SDLP, was analyzed using a mixed-model, repeated measures with fixed effects for sequence, period, and treatment, with repeated observations for subjects. An unstructured covariance structure and Kenward-Roger degrees of freedom was used. […] In addition, pair-wise within subject differences in SDLP greater than 4.4 cm in absolute value (equal to the previously found difference between placebo and 0.05% Blood Alcohol Content (BAC) for the CRCDS) were compared using McNemar's test. Pair-wise within subject differences in SDLP were also tested for symmetry about […] using the maximally selected McNemar test. P-values for significance testing of period and sequence effects are also provided. Pair-wise comparisons (hypothesis tests) of differences in least squares means, and 95% confidence intervals on differences will be provided for:
A 62.1 mile (100 km), monotonous, two-lane highway driving task that includes a secondary visual vigilance task (DA).

[3] = system: male and female healthy volunteers; assay: Karolinska Sleepiness Scale (KSS) test; assay type: in vivo, human; details: for Karolinska Sleepiness Scale (KSS): Tolperisone 450 mg, Cyclobenzaprine 30 mg, TID
Protocol: as §1
The Karolinska Sleepiness Scale (KSS) was used to assess subjective level of sleepiness. This is a subject self-report measure of situational sleepiness and provides an assessment of alertness/sleepiness at a particular point in time. […] Subjects indicated their level of alertness versus sleepiness according to the following scale:
The KSS assessment was performed immediately before and after the simulated driving test Subjects self-reported their KSS assessments and the scores were recorded in the case report form.

[4] = system: male and female healthy volunteers; assay: Digit Symbol Substitution Test (CogScreen Symbol Digit Coding); assay type: in vivo, human; details: Tolperisone 450 mg, Cyclobenzaprine 30 mg, TID
Protocol: as §1
This test is used to measure attention, visual scanning, working memory, and speed of information processing. SDC is a computer analogue of the conventional symbol-substitution task found in the WAIS-R Digit Symbol subtest and the Symbol Digit Modalities Test. Details of the use of the SDC are provided in the CogScreen® Examiner Manual, CogScreen LLC, 2016. CogScreen SDC endpoints include: • Number of correct responses; • Response Accuracy; and • Standard deviation of reaction time.

In the case of CN(C)CCC=C1c2ccccc2C=Cc2ccccc21 [Cyclobenzaprine, cyclobenzaprine], the “Treatment Emergent Adverse Events: Cardiac” value [1] is reported as 1, the “Treatment Emergent Adverse Events: Gastrointestinal Disorders” value [1] is reported as 4 and the “Treatment Emergent Adverse Events: General: Sluggishness” value [1] is reported as 1. The “Treatment Emergent Adverse Events: Nervous System Disorders, Attention” value [1] was 0, the “Treatment Emergent Adverse Events: Nervous System Disorders, Dizziness” value [1] was 3 and the “Treatment Emergent Adverse Events: Nervous System Disorders, Headache” value [1] was 0. For the same molecule, the “Treatment Emergent Adverse Events: Nervous System Disorders, Lethargy” value [1] was 1, the “Treatment Emergent Adverse Events: Nervous System Disorders, Somnolence” value [1] was 10 and the “Treatment Emergent Adverse Events: Psychiatric (Insomnia)” value [1] was 1. For the same molecule, the “Treatment Emergent Adverse Events: Respiratory” value [1] was 0, the “Treatment Emergent Adverse Events: Skin” value [1] was 0 and the “severe AE” value ([1]; in vivo) was “one severe AE of dizziness”. For the same molecule, the “number of Treatment Emergent Adverse Events (TEAEs) reported” value [1] was 21, the “Lane Exceedance Maximum and Duration of Exceedance compared to placebo” value ([2]; Cyc: Days 1 and 2, Tol: any time-point) was “significantly worse” and the “Lane Exceedance (extent of driving outside of lanes)” value ([2]; Day 1 (at Tmax)) was 3.6. For the same molecule, the “Total Collisions” value ([2]; Day 1 (at Tmax)) was 1.6, the “Speedings Ratio compared to placebo” value ([2]; Day 2 and 3) was “no significant effect” and the “Lane Exceedance (extent of driving outside of lanes)” value ([2]; Next Day Residual) was 3.2. For the same molecule, the “Total Collisions” value ([2]; Next Day Residual) was 0.4, the “Lane Exceedance (extent of driving outside of lanes)” value ([2]; Steady State) was 2.9 and the “Total Collisions” value ([2]; Steady State) was 0.1. The “Average speed compared to placebo” value ([2]; in vivo) was “did not differ significantly”, the “Divided attention: number of Commission Errors compared to placebo” value ([2]; in vivo) was “non-significant” and the “Divided attention: number of Correct Responses compared to placebo” value ([2]; in vivo) was “no significant effect”. The “Divided attention: number of Omission Errors” value ([2]; in vivo) was “no increase”, the “Total Collisions compared to placebo” value ([2]; in vivo) was “no significant increase” and the “SDLP in driving simulation compared to placebo (words, FIG. 1)” value [2] was “significantly impaired effect”. The “KSS subjective sleepiness” value ([3]; Day 1) was “significantly more subjective sleepiness”, the “Karolinska Sleepiness Scale (KSS)” value ([3]; Day 1 (at Tmax)) was 5.5 and the “KSS subjective sleepiness” value ([3]; Day 2 or Day 3) was “did not report feeling more sleepy”. For the same molecule, the “Karolinska Sleepiness Scale (KSS)” value ([3]; Next Day Residual) was 4.1, the “Karolinska Sleepiness Scale (KSS)” value ([3]; Steady State) was 3.8 and the “Symbol Digit Coding (SDC) Cognitive Research Version” value (“Symbol Digit Coding” below) ([4]; Day 1 (at Tmax)) was 66.4. For the same molecule, the “Symbol Digit Coding” value ([4]; Next Day Residual) was 66.7 and the “Symbol Digit Coding” value ([4]; Steady State) was 67.4.

In the case of Cc1ccc(C(=O)C(C)CN2CCCCC2)cc1 (stereo not drawn) [Tolperisone, tolperisone], the “Treatment Emergent Adverse Events: Cardiac” value [1] is reported as 0, the “Treatment Emergent Adverse Events: Gastrointestinal Disorders” value [1] is reported as 1 and the “Treatment Emergent Adverse Events: General: Sluggishness” value [1] is reported as 0. The “Treatment Emergent Adverse Events: Nervous System Disorders, Attention” value [1] was 1, the “Treatment Emergent Adverse Events: Nervous System Disorders, Dizziness” value [1] was 1 and the “Treatment Emergent Adverse Events: Nervous System Disorders, Headache” value [1] was 1. The “Treatment Emergent Adverse Events: Nervous System Disorders, Lethargy” value [1] was 0, the “Treatment Emergent Adverse Events: Nervous System Disorders, Somnolence” value [1] was 5 and the “Treatment Emergent Adverse Events: Psychiatric (Insomnia)” value [1] was 0. For the same molecule, the “Treatment Emergent Adverse Events: Respiratory” value [1] was 1, the “Treatment Emergent Adverse Events: Skin” value [1] was 0 and the “discontinuation due to AE” value ([1]; following the first day of dosing) was “one subject due to a moderate AE of a Crohn's Disease flare up”. The “number of Treatment Emergent Adverse Events (TEAEs) reported” value [1] was 15, the “Reaction time on the divided attention test” value [2] was “statistically significant improvement” and the “Reaction time on the divided attention test” value ([2]; listed as Tol) was “significantly faster”. The “Average speed compared to placebo” value ([2]; in vivo) was “did not differ significantly”, the “Divided attention: number of Commission Errors compared to placebo” value ([2]; in vivo) was “non-significant” and the “Divided attention: number of Correct Responses compared to placebo” value ([2]; in vivo) was “no significant effect”. The “Divided attention: number of Omission Errors” value ([2]; in vivo) was “no increase”, the “Excessive Ay compared to placebo” value ([2]; in vivo) was “no significant increase” and the “Lane Exceedance Maximum and Duration of Exceedance compared to placebo” value ([2]; in vivo) was “not seen”. For the same molecule, the “Speedings Count compared to placebo” value ([2]; in vivo) was “not significantly impacted”, the “Speedings Ratio compared to placebo” value ([2]; in vivo) was “no significant effect” and the “Total Collisions compared to placebo” value ([2]; in vivo) was “no significant increase”. For the same molecule, the “hangover effect the morning following nighttime dosing” value ([2]; in vivo) was “does not produce a hangover effect”, the “majority of secondary driving endpoint measures compared to placebo” value ([2]; in vivo) was “no statistically significant difference” and the “SDLP in driving simulation compared to placebo (words, FIG. 1)” value [2] was “equivalent results”. The “Karolinska Sleepiness Scale (KSS)” value ([3]; Day 1 (at Tmax)) was 3.5, the “Karolinska Sleepiness Scale (KSS)” value ([3]; Next Day Residual) was 4.0 and the “Karolinska Sleepiness Scale (KSS)” value ([3]; Steady State) was 3.1. The “KSS self-reported sleepiness” value ([3]; any time-point) was “no significant increase”, the “Symbol Digit Coding” value ([4]; Day 1 (at Tmax)) was 66.6 and the “Symbol Digit Coding” value ([4]; Next Day Residual) was 69.3. The “Symbol Digit Coding” value ([4]; Steady State) was 70.1.
